Results reported in paper doi:10.1101/2021.02.17.431525v1 (biorxiv, 2021).

Target: GRB2 (growth factor receptor bound protein 2) (Homo sapiens, UniProt P62993)
Assay: biochemical

Chain of GRB2 (growth factor receptor bound protein 2) (P62993 whole entry): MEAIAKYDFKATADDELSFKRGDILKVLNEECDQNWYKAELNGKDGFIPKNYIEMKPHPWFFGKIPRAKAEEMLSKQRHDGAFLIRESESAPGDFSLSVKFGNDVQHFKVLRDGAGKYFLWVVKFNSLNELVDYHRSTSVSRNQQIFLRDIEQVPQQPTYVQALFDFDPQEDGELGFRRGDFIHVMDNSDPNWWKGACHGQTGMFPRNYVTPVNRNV

Which Kd does the source give for `CC(C)=CCC[C@](C)(O)[C@H]1CC[C@]2(C)[C@@H]1[C@H](O)C[C@@H]1[C@@]3(C)CC[C@H](O[C@@H]4O[C@H](CO)[C@@H](O)[C@H](O)[C@H]4O[C@@H]4O[C@H](CO)[C@@H](O)[C@H](O)[C@H]4O)C(C)(C)[C@@H]3CC[C@]12C` [ginsenoside Rg3] here?
Its Kd is 1530 ± 110 nM.
